The target of one data set is T1, Thromboxane-A synthase (Homo sapiens, UniProt P24557).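 Further: enzyme inhibition assay with PGH2 supplied as substrate; in other assays of this panel Not Active means under 50% inhibition at 10 µM.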
T1 sequence (P24557 whole entry): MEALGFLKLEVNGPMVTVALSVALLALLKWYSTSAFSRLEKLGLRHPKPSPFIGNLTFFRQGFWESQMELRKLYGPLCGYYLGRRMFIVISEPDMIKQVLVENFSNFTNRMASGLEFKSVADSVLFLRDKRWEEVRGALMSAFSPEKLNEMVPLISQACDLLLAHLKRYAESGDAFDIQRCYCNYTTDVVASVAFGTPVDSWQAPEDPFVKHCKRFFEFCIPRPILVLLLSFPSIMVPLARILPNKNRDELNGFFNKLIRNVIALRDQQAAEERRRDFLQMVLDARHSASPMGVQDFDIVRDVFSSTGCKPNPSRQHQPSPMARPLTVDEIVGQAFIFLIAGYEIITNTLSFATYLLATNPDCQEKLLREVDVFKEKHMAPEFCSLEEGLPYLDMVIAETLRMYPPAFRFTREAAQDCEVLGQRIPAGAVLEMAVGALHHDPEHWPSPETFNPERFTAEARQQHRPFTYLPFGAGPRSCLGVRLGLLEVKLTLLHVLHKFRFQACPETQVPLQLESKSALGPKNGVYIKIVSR
The experiment in a line: biochemical. Type of data set: tissue-based, Platelet. The conditions noted are these: platelet.

In a further data set the target is Carbonic anhydrase 2 (Homo sapiens, UniProt P00918). Put plainly: DRUGMATRIX: Carbonic Anhydrase II enzyme inhibition (substrate: 4-Nitrophenyl acetate (4-NPA)). The settings on record: erythrocyte; Not Active = under 50% inhibition at 10 µM. Type of data set: tissue-based, Erythrocyte.
Data set [1] concerns the target Sodium-dependent dopamine transporter (Homo sapiens, UniProt Q01959). The experiment in a line: DRUGMATRIX: Dopamine Transporter radioligand binding (ligand: [125I] RTI-55). Type of data set: cell membranes, CHO-K1, Membrane. The conditions noted are these: cho-k1; Not Active = under 50% inhibition at 10 µM.
The nature of data set [2]: DRUGMATRIX: Imidazoline I2, Central radioligand binding (ligand: [3H] Idazoxan). The conditions noted are these: Not Active = under 50% inhibition at 10 µM. The data set is classed as cell membranes, Rattus norvegicus, Wistar, Cerebral cortex, Membrane.
Data set [3] has as its target Protein kinase C alpha type (Homo sapiens, UniProt P17252). Type of data set: cell-based. The conditions noted are these: sf9.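 Further: inhibition of PKCalpha kinase activity measured in an enzyme assay with histone as the phosphorylation substrate; in other assays of this panel Not Active means under 50% inhibition at 10 µM.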
In data set [4] the target is Tyrosine-protein kinase Fyn (Homo sapiens, UniProt P06241). Put plainly: biochemical. Type of data set: cell-based, Insect cells.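 Further: enzymatic inhibition of Fyn kinase activity measured with Poly(Glu:Tyr) as the phosphorylation substrate; in other assays of this panel Not Active means under 50% inhibition at 10 µM.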
A further data set deals with Cytochrome P450 2C19 (Homo sapiens, UniProt P33261). The conditions noted are these: bti-tn-5b1-4.

Drawing on ChEMBL document CHEMBL1909046, “DrugMatrix in vitro pharmacology data”, this text covers IC50 and Ki for 20 molecules.

Chain of Cytochrome P450 2C19 (P33261 whole entry): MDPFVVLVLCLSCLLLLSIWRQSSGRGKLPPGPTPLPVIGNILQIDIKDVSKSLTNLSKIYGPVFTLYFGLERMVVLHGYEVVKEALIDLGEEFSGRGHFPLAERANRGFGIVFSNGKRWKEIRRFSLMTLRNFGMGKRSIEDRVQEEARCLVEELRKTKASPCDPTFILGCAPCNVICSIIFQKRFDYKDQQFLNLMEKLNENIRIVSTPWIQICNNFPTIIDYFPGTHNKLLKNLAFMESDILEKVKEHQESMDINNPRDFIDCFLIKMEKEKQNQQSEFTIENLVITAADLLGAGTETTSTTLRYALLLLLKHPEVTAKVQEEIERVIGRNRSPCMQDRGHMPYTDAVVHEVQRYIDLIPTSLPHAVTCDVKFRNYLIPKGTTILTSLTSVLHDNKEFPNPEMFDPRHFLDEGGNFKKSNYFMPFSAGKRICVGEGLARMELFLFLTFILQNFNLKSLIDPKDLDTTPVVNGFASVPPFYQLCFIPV
Chain of Tyrosine-protein kinase Fyn (P06241 whole entry): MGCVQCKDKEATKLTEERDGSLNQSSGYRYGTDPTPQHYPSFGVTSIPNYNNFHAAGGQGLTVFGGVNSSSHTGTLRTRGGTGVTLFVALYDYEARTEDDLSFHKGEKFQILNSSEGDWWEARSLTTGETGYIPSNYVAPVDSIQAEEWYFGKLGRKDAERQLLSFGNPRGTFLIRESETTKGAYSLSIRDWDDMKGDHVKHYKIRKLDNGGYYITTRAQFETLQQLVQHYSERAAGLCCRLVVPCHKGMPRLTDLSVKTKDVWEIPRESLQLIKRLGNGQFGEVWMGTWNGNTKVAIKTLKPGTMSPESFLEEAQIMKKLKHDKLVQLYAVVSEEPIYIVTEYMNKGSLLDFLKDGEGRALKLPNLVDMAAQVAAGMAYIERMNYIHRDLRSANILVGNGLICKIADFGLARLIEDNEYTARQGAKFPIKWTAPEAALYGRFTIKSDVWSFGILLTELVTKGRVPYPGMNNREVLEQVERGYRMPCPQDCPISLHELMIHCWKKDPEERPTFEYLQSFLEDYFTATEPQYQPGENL
Chain of Sodium-dependent dopamine transporter (Q01959 whole entry): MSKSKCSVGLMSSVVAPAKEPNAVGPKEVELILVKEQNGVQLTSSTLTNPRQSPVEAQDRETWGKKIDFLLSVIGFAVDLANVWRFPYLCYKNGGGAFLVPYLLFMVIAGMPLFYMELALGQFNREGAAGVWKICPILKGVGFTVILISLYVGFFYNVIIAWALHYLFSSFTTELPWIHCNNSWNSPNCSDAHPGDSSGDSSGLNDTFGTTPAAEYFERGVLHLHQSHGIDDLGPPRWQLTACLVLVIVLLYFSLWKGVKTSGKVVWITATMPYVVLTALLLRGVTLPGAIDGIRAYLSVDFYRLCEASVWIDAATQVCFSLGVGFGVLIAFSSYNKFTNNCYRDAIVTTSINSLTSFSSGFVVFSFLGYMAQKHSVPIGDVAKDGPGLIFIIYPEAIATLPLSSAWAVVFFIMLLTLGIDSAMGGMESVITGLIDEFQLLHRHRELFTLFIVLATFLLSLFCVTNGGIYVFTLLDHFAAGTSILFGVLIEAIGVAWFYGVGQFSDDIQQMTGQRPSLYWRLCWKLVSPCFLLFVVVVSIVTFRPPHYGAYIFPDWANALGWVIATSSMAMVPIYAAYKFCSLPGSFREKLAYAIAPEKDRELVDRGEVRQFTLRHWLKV

Turning to `COc1cc(N)nc2[nH]c(-c3ccc(F)cc3)c(-c3ccncc3)c12`, the half-maximal inhibitory concentration (IC50) entry (against Thromboxane-A synthase; against Carbonic anhydrase 2; in data set [1]; in data set [2]; in data set [3]; in data set [4] (insect cells)) was “Not Active” each time. The concentration for half-maximal inhibition (IC50) (as a rule, the concentration that gives 50% inhibition) on Cytochrome P450 2C19 is “Not Active”. In addition, the Ki entry (in data set [2]; at Cytochrome P450 2C19) was “Not Active” each time.

On to `CNS(=O)(=O)Cc1ccc2[nH]cc(CCN(C)C)c2c1`, for which the IC50 result (against Thromboxane-A synthase; at Carbonic anhydrase 2; in data set [1]; in data set [2]; in data set [3]; in data set [4] (insect cells)) was “Not Active” in each case. Besides, the concentration for half-maximal inhibition (IC50) result against Cytochrome P450 2C19 was “Not Active”. In addition, the Ki entry (in data set [2]; on Cytochrome P450 2C19) was “Not Active” throughout.

In the case of `CCCc1nn(C)c2c(=O)[nH]c(-c3cc(S(=O)(=O)N4CCN(C)CC4)ccc3OCC)nc12`, the half-inhibitory concentration (IC50) result (at Thromboxane-A synthase; against Carbonic anhydrase 2; in data set [1]; in data set [2]; in data set [3]; in data set [4] (insect cells)) was “Not Active” each time. Also, the concentration for half-maximal inhibition (IC50) entry on Cytochrome P450 2C19 is listed as “Not Active”. For the same molecule, the Ki result (in data set [2]; at Cytochrome P450 2C19) was “Not Active” in each case.

In the case of `COc1ccc(/C=C/C(=O)Nc2ccccc2C(=O)O)cc1OC`, the IC50 entry (at Thromboxane-A synthase; at Carbonic anhydrase 2; in data set [1]; in data set [2]; in data set [3]; in data set [4] (insect cells)) was “Not Active” each time. Further, the half-maximal inhibitory concentration (IC50) entry at Cytochrome P450 2C19 is “Not Active”. Further, the Ki result (in data set [2]; at Cytochrome P450 2C19) was “Not Active” throughout.

Consider `CCOC(N)=O`, for which the concentration for half-maximal inhibition (IC50) result (on Thromboxane-A synthase; on Carbonic anhydrase 2; in data set [1]; in data set [2]; in data set [3]; in data set [4] (insect cells)) was “Not Active” in each case. Further, the half-maximal inhibitory concentration (IC50) result on Cytochrome P450 2C19 is “Not Active”. Further, the inhibition constant Ki result (in data set [2]; at Cytochrome P450 2C19) was “Not Active” throughout.

In the case of `CC(=O)Nc1nnc(S(N)(=O)=O)s1` [ACETAZOLAMIDE], the IC50 result (on Thromboxane-A synthase; in data set [1]; in data set [3]; in data set [4] (insect cells); against Cytochrome P450 2C19) was “Not Active” each time. Moreover, the Ki (commonly a measure of affinity in units of concentration, obtained from inhibition or displacement) on Cytochrome P450 2C19 is given as “Not Active”.

For the molecule `O=c1[nH]c2ccccc2n1CCCN1CCC(n2c(=O)[nH]c3cc(Cl)ccc32)CC1` [DOMPERIDONE], the IC50 entry (against Thromboxane-A synthase; against Carbonic anhydrase 2; in data set [1]; in data set [3]; in data set [4] (insect cells)) was “Not Active” each time.

For the molecule `CC(C)OC(=O)C(C)(C)Oc1ccc(C(=O)c2ccc(Cl)cc2)cc1` [FENOFIBRATE], the IC50 result (on Thromboxane-A synthase; against Carbonic anhydrase 2; in data set [3]; in data set [4] (insect cells); against Cytochrome P450 2C19) was “Not Active” throughout. At Cytochrome P450 2C19, the Ki result is “Not Active”.

With `OCCN1CCN(CCCN2c3ccccc3Sc3ccc(C(F)(F)F)cc32)CC1` [FLUPHENAZINE], the IC50 result on Thromboxane-A synthase was “Not Active”; on Carbonic anhydrase 2 it was “Not Active”; in data set [3], “Not Active”; in data set [4] (read-out: IC50) it was 7990 nM.

Consider `CN1C2CCCC1CC(NC(=O)c1nn(C)c3ccccc13)C2` (stereo unspecified) [GRANISETRON], for which the IC50 result (against Thromboxane-A synthase; against Carbonic anhydrase 2; in data set [1]; in data set [3]; in data set [4] (insect cells); on Cytochrome P450 2C19) was “Not Active” in each case. Also, the Ki result at Cytochrome P450 2C19 is given as “Not Active”.

As to `CC[C@@H](CO)NC(=O)[C@@H]1C=C2c3cccc4c3c(cn4C)C[C@H]2N(C)C1` [METHYSERGIDE], the 50% inhibitory concentration (IC50) entry (at Thromboxane-A synthase; against Carbonic anhydrase 2; in data set [1]; in data set [3]; in data set [4] (insect cells); against Cytochrome P450 2C19) was “Not Active” each time. Besides, the Ki entry on Cytochrome P450 2C19 was “Not Active”.

Turning to `CCN(CC)CC#CCOC(=O)C(O)(c1ccccc1)C1CCCCC1` (stereo unspecified) [OXYBUTYNIN], the half-maximal inhibitory concentration (IC50) entry (against Thromboxane-A synthase; at Carbonic anhydrase 2; in data set [3]; in data set [4] (insect cells)) was “Not Active” in each case.

For `C=C(C)[C@H]1Cc2c(ccc3c2O[C@@H]2COc4cc(OC)c(OC)cc4[C@@H]2C3=O)O1` [ROTENONE], the half-maximal inhibitory concentration (IC50) result (against Thromboxane-A synthase; on Carbonic anhydrase 2; in data set [1]; in data set [2]; in data set [3]; in data set [4] (insect cells)) was “Not Active” throughout. In addition, in data set [2], the Ki entry is listed as “Not Active”.

As to `C#CCN(C)[C@H](C)Cc1ccccc1` [SELEGILINE], the IC50 result is “Not Active” at Thromboxane-A synthase; “Not Active” against Carbonic anhydrase 2; “Not Active” in data set [1]; 1610 nM in data set [2] (read-out: IC50); “Not Active” in data set [3]; “Not Active” in data set [4] (insect cells). Further, the inhibition constant Ki in data set [2] (read-out: Ki) was determined as 1080 nM.

As to `CO[C@H]1C[C@@H]2CC[C@@H](C)[C@@](O)(O2)C(=O)C(=O)N2CCCC[C@H]2C(=O)O[C@H]([C@H](C)C[C@@H]2CC[C@@H](O)[C@H](OC)C2)CC(=O)[C@H](C)/C=C(\C)[C@@H](O)[C@@H](OC)C(=O)[C@H](C)C[C@H](C)/C=C/C=C/C=C/1C` [SIROLIMUS], the IC50 result (at Thromboxane-A synthase; against Carbonic anhydrase 2; in data set [1]; in data set [2]; in data set [3]; in data set [4] (insect cells)) was “Not Active” throughout. Further, the Ki result in data set [2] is “Not Active”.

As for `CN[C@@H]1[C@H](O)[C@H](NC)[C@H]2O[C@@]3(O)C(=O)C[C@@H](C)O[C@H]3O[C@@H]2[C@H]1O` [SPECTINOMYCIN], the half-inhibitory concentration (IC50) result (against Thromboxane-A synthase; against Carbonic anhydrase 2; in data set [1]; in data set [2]; in data set [3]; in data set [4] (insect cells)) was “Not Active” each time. Moreover, in data set [2], the inhibition constant Ki entry is “Not Active”.

In the case of `Nc1ccc(S(=O)(=O)Nc2ncccn2)cc1` [SULFADIAZINE], the half-maximal inhibitory concentration (IC50) entry (against Thromboxane-A synthase; in data set [1]; in data set [2]; in data set [3]; in data set [4] (insect cells); on Cytochrome P450 2C19) was “Not Active” throughout. The Ki result (in data set [2]; on Cytochrome P450 2C19) was “Not Active” each time.

In the case of `CCS(=O)(=O)CCn1c([N+](=O)[O-])cnc1C` [TINIDAZOLE], the half-maximal inhibitory concentration (IC50) entry (at Thromboxane-A synthase; at Carbonic anhydrase 2; in data set [1]; in data set [2]; in data set [3]; in data set [4] (insect cells)) was “Not Active” in each case. The Ki result in data set [2] is reported as “Not Active”.

For the molecule `O=c1n(CCCN2CCN(c3cccc(Cl)c3)CC2)nc2ccccn12` [TRAZODONE], the IC50 entry (on Thromboxane-A synthase; against Carbonic anhydrase 2; in data set [1]; in data set [3]; in data set [4] (insect cells); at Cytochrome P450 2C19) was “Not Active” throughout. For the same molecule, at Cytochrome P450 2C19, the Ki entry is “Not Active”.

Turning to `COc1ccc(CN2CCNCC2)c(OC)c1OC` [TRIMETAZIDINE], the IC50 entry (at Thromboxane-A synthase; at Carbonic anhydrase 2; in data set [1]; in data set [2]; in data set [3]; in data set [4] (insect cells)) was “Not Active” throughout. Also, the inhibitory constant (Ki) entry in data set [2] was “Not Active”.
